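The compound was tested at five concentrations on cells cultured in 96-well plates, with a 48-hour exposure period. GI50 is the concentration that inhibits growth by half.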 Calls of active or inactive are those of the source. No stated cut-off is given here; in the data, active = GI50 up to about 1.1 µM and inactive = higher.
What was measured:
Assay in all cases: NCI tumour cell line growth inhibition, 48 h
CAKI-1 = tested on: CAKI-1
MDA-N = tested on: MDA-N
HOP-92 = tested on: HOP-92
DU-145 = tested on: DU-145
SK-MEL-2 = tested on: SK-MEL-2
OVCAR-3 = tested on: OVCAR-3
Hs-578T = tested on: Hs-578T
A498 = tested on: A498
Malme-3M = tested on: Malme-3M
SNB-19 = tested on: SNB-19
K562 = tested on: K562
SR = tested on: SR
IGROV-1 = tested on: IGROV-1
BT-549 = tested on: BT-549
COLO 205 = tested on: COLO 205
NCI-H522 = tested on: NCI-H522
OVCAR-5 = tested on: OVCAR-5
SK-MEL-28 = tested on: SK-MEL-28
HCT-116 = tested on: HCT-116

Measured: GI50

COC(=O)/C=C(\C(=O)OC)c1cc(C)c2cc(C(C)C)ccc(C)c1-2
inactive: CAKI-1 47.9 µM | MDA-N 19.5 µM | HOP-92 24.5 µM | DU-145 60.3 µM | SK-MEL-2 34.8 µM | OVCAR-3 49.4 µM | Hs-578T 42.7 µM | A498 > 100 µM | Malme-3M 38.5 µM | SNB-19 > 100 µM | K562 > 100 µM | SR > 100 µM | IGROV-1 85.9 µM | BT-549 39.6 µM | COLO 205 30.3 µM | NCI-H522 13.1 µM | OVCAR-5 > 100 µM | SK-MEL-28 > 100 µM | HCT-116 34 µM

CC(C)c1cc(C(F)(F)F)nc(NNc2nc(C(C)C)cc(C(F)(F)F)n2)n1
inactive: CAKI-1 64.7 µM | MDA-N > 100 µM | HOP-92 > 100 µM | DU-145 > 100 µM | SK-MEL-2 > 100 µM | OVCAR-3 17.1 µM | Hs-578T 79.4 µM | A498 > 100 µM | Malme-3M 49 µM | SNB-19 41.7 µM | K562 > 100 µM | SR > 100 µM | IGROV-1 > 100 µM | BT-549 > 100 µM | COLO 205 > 100 µM | NCI-H522 > 100 µM | OVCAR-5 > 100 µM | SK-MEL-28 > 100 µM | HCT-116 93.8 µM

CNC1C(O)C(OC2C(N)CC(N)C(OC3OC(CN)=CCC3N)C2O)OCC1(C)O (stereo unspecified)
inactive: CAKI-1 > 100 µM | MDA-N > 100 µM | HOP-92 > 100 µM | DU-145 > 100 µM | SK-MEL-2 > 100 µM | OVCAR-3 > 100 µM | Hs-578T > 100 µM | A498 > 100 µM | Malme-3M > 100 µM | SNB-19 > 100 µM | K562 > 100 µM | SR > 100 µM | IGROV-1 > 100 µM | BT-549 > 100 µM | COLO 205 > 100 µM | NCI-H522 > 100 µM | OVCAR-5 > 100 µM | SK-MEL-28 > 100 µM | HCT-116 > 100 µM

CN(C(=O)Cc1ccccc1)n1cnn(CC(=O)OC(C)(C)C)c1=S
inactive: CAKI-1 > 10 µM | MDA-N > 10 µM | HOP-92 > 10 µM | DU-145 > 10 µM | OVCAR-3 > 10 µM | Hs-578T > 10 µM | A498 > 10 µM | Malme-3M > 10 µM | SNB-19 > 10 µM | K562 > 10 µM | SR > 10 µM | IGROV-1 > 10 µM | BT-549 > 10 µM | COLO 205 > 10 µM | NCI-H522 > 10 µM | OVCAR-5 > 10 µM | SK-MEL-28 > 10 µM | HCT-116 > 10 µM

Cc1sc2nc(N(C)C)oc(=O)c2c1C
inactive: CAKI-1 76.9 µM | MDA-N > 100 µM | HOP-92 > 100 µM | DU-145 > 100 µM | SK-MEL-2 > 100 µM | Hs-578T > 100 µM | A498 81.3 µM | Malme-3M > 100 µM | SNB-19 > 100 µM | K562 63.4 µM | SR 40.8 µM | IGROV-1 > 100 µM | BT-549 15.8 µM | COLO 205 > 100 µM | NCI-H522 30.8 µM | OVCAR-5 > 100 µM | SK-MEL-28 > 100 µM | HCT-116 > 100 µM

Cn1c(-c2cccs2)cc(-c2ccsc2)c1-c1ccsc1
inactive: CAKI-1 > 100 µM | MDA-N > 100 µM | HOP-92 > 100 µM | DU-145 > 100 µM | OVCAR-3 > 100 µM | Hs-578T > 100 µM | A498 > 100 µM | Malme-3M > 100 µM | SNB-19 > 100 µM | K562 > 100 µM | SR > 100 µM | IGROV-1 > 100 µM | BT-549 > 100 µM | COLO 205 > 100 µM | NCI-H522 > 100 µM | OVCAR-5 > 100 µM | SK-MEL-28 > 100 µM | HCT-116 64.1 µM

Source: ChEMBL document CHEMBL1201862, “PubChem BioAssay data set” (2004)
